Assay results from patent publication US6528494B2 (priority 1996, dated 2003).
Structures can show the parent of a compound that is named as a salt.

What was measured:
Assay type in all cases: cell-based
adenosine 2a receptor = adenosine 2a receptor (Homo sapiens, UniProt P29274); experiment: Agonist activity against adenosine 2a receptor (CHO cells, cAMP/SPAP reporter); details: CHO cells transfected with human receptor; basal cAMP via SPAP; mean of all the versions tested
Method: (§1) (1) Agonist activity against adenosine 2a, adenosine 1 and adenosine 3 receptor subtypes.
(§2) The effect of test compounds was determined by their effects on basal levels of cAMP (A2a) or on forskolin-enhanced cAMP (A1 and A3) as reflected by changes in levels of SPAP.

adenosine 1 receptor = target: T1, adenosine 1 receptor (Homo sapiens, UniProt P30542); experiment: Agonist activity against adenosine 1 receptor (CHO cells, forskolin-enhanced cAMP/SPAP reporter); details: CHO cells transfected with human receptor; forskolin-enhanced cAMP via SPAP; mean of all the versions tested
T1 sequence (P30542 1-326): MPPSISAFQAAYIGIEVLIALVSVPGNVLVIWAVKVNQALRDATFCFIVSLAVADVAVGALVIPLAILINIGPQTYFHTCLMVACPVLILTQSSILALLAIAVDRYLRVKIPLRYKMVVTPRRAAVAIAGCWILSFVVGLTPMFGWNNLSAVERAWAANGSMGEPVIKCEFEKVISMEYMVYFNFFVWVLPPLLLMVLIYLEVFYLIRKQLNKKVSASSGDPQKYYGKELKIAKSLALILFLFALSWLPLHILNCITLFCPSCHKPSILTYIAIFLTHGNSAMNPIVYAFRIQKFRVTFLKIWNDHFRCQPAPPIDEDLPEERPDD
Method: as §1, §2

adenosine 3 receptor = target: T2, adenosine 3 receptor (Homo sapiens, UniProt P0DMS8); experiment: Agonist activity against adenosine 3 receptor (CHO cells, forskolin-enhanced cAMP/SPAP reporter); details: CHO cells transfected with human receptor; forskolin-enhanced cAMP via SPAP; mean of all the versions tested
T2 sequence (P0DMS8 1-318): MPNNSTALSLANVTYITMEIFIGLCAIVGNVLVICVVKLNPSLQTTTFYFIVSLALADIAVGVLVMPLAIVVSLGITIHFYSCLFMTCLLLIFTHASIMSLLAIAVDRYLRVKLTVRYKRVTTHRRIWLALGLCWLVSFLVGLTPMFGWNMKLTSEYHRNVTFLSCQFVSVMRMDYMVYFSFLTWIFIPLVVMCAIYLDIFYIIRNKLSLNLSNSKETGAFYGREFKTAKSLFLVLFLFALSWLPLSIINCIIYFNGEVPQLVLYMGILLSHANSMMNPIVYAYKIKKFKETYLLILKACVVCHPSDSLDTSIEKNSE
Method: as §1, §2

Chain of adenosine 2a receptor (P29274 whole entry): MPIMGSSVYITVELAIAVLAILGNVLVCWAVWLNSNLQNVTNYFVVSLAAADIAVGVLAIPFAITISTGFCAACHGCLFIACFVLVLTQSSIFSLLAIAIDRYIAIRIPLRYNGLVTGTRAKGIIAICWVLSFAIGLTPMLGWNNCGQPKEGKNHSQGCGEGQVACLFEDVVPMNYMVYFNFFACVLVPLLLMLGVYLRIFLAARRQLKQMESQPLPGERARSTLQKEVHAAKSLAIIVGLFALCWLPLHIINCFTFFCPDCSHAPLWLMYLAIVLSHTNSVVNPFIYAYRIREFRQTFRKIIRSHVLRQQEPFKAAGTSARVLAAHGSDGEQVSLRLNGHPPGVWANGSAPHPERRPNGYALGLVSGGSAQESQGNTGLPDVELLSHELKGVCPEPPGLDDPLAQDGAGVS

Row | A2a EC50 as a ratio of that of NECA (adenosine 2a receptor) | A1 EC50 as a ratio of that of NECA (adenosine 1 receptor) | A3 EC50 as a ratio of that of NECA (adenosine 3 receptor) | Compound
1 | 2.40 | 165.30 | >155 | CCn1nnc(C2OC(n3cnc4c(NCCc5ccccc5)nc(NC(CO)Cc5ccccc5)nc43)C(O)C2O)n1 [Example 79, (2R,3S,4R,5R)-2-(2-Ethyl-2H-tetrazol-5-yl)-5-[2-(1S-hydroxymethyl-2-phenyl-ethylamino)-6-phenethylamino-purin-9-yl]-tetrahydro-furan-3,4-diol Formate]
2 | 0.1 | 12.6 | >133 | CCn1nnc(C2OC(n3cnc4c(NC(CO)Cc5ccccc5)nc(NCCc5cn(C)cn5)nc43)C(O)C2O)n1 [Example 8, (2R,3S,4R,5R)-2-(2-Ethyl-2H-tetrazol-5-yl)-5-{6-(1S-hydroxymethyl-2-phenyl-ethylamino)-2-[2-(1-methyl-1H-imidazol-4-yl)-ethylamino]-purin-9-yl}-tetrahydro-furan-3,4-diol Acetate]
3 | 1.99 | 14.78 | >158 | CCn1nnc(C2OC(n3cnc4c(NC5CCCC5)nc(NC(CO)Cc5ccccc5)nc43)C(O)C2O)n1 [Example 71, (2R,3R,4S,5R)-2-[6-Cyclopentylamino-2-(1S-hydroxymethyl-2-phenyl-ethylamino)-purin-9-yl]-5-(2-ethyl-2H-tetrazol-5-yl)-tetrahydro-furan-3,4-diol Formate]
4 | 2.19 | 472.30 | >315 | (2R,3R,4S,5R)-2-[6-Cyclopentylamino-2-(2-pyrrolidin-1-yl-ethylamino)-purin-9-yl]-5-(2-methyl-2H-tetrazol-5-yl)-tetrahydro-furan-3,4-diol bis(Formate) [Example 112]
5 | 9.90 | 481.30 | >736 | CCn1nnc(C2OC(n3cnc4c(NCCC(C)(C)C)nc(NC(CO)Cc5ccccc5)nc43)C(O)C2O)n1 [Example 52, (2R,3R,4S,5R)-2-[6-(3,3-Dimethyl-butylamino)-2-(1S-hydroxymethyl-2-phenyl-ethylamino)-purin-9-yl]-5-(2-ethyl-2H-tetrazol-5-yl)-tetrahydro-furan-3,4-diol Acetate]
6 | 1.51 | 39.00 | >195 | CCn1nnc(C2OC(n3cnc4c(NC5CCCC5)nc(NC5CCC(N)CC5)nc43)C(O)C2O)n1.O=CO.O=CO [Example 101, (2R,3R,4S,5R)-2-[2-(trans-4-Amino-cyclohexylamino)-6-cyclopentylamino-purin-9-yl]-5-(2-ethyl-2H-tetrazol-5-yl)-tetrahydro-furan-3,4-diol bis(Formate)]
7 | 0.86 | 241.4 | >329 | Cn1nnc(C2OC(n3cnc4c(NCC(c5ccccc5)c5ccccc5)nc(NCCN5CCCCC5)nc43)C(O)C2O)n1.O=CO.O=CO (stereo not drawn) [Example 26]
8 | 2.29 | 21.10 | >295 | CCn1nnc(C2OC(n3cnc4c(NC(CO)Cc5ccccc5)nc(NC5CCNC5)nc43)C(O)C2O)n1 [Example 62, (2R,3S,4R,5R)-2-(2-Ethyl-2H-tetrazol-5-yl)-5-[6-(1S-hydroxymethyl-2-phenyl-ethylamino)-2-(pyrrolidin-3R-ylamino)-purin-9-yl]-tetrahydro-furan-3,4-diol bis(Formate)]
9 | 4.14 | 298.30 | >960 | CCn1nnc([C@H]2O[C@@H](n3cnc4c(N)nc(N[C@H]5CC[C@H](N)CC5)nc43)[C@H](O)[C@@H]2O)n1 [Example 53, (2R,3R,4S,5R)-2-[6-Amino-2-(trans-4-amino-cyclohexylamino)-purin-9-yl]-5-(2-ethyl-2H-tetrazol-5-yl)-tetrahydro-furan-3,4-diol]
10 | 6.48 | 848.50 | >158 | CCn1nnc(C2OC(n3cnc4c(NCCC5CCCCC5)nc(NC5CCNC5)nc43)C(O)C2O)n1 [Example 72, (2R,3R,4S,5R)-2-[6-(2-Cyclohexyl-ethylamino)-2-(pyrrolidin-3R-ylamino)-purin-9-yl]-5-(2-ethyl-2H-tetrazol-5-yl)-tetrahydro-furan-3,4-diol Diformate]
11 | 4.82 | 87.00 | >130 | CC(C)C(CO)Nc1nc(NCC(c2ccccc2)c2ccccc2)c2ncn(C3OC(c4nnn(C)n4)C(O)C3O)c2n1 [Example 99, (2R,3R,4S,5R)-2-[6-(2,2-Diphenyl-ethylamino)-2-(1S-hydroxymethyl-2-methyl-propylamino)-purin-9-yl]-5-(2-methyl-2H-tetrazol-5-yl)-tetrahydro-furan-3,4-diol Formate]

Row | Compound | A2a EC50 as a ratio of that of NECA (adenosine 2a receptor) | A1 EC50 as a ratio of that of NECA (adenosine 1 receptor) | A3 EC50 as a ratio of that of NECA (adenosine 3 receptor)
12 | CC(=O)O.CCn1nnc([C@H]2O[C@@H](n3cnc4c(NCCC(C)(C)C)nc(NCCc5cn(C)cn5)nc43)[C@H](O)[C@@H]2O)n1 [Example 9, (2R,3R,4S,5R)-2-{6-(3,3-Dimethyl-butylamino)-2-[2-(1-methyl-1H-imidazol-4-yl)-ethylamino]-purin-9-yl}-5-(2-ethyl-2H-tetrazol-5-yl)-tetrahydro-furan-3,4-diol Acetate] | 0.45 | 377 | >42
13 | CCn1nnc([C@H]2O[C@@H](n3cnc4c(N)nc(NC5CCCC5)nc43)[C@H](O)[C@@H]2O)n1.O=C(O)C(F)(F)F.O=C(O)C(F)(F)F [Example 12] | 0.57 | 31.2 | >243
14 | CCn1nnc([C@H]2O[C@@H](n3cnc4c(NCCC(C)(C)C)nc(N[C@@H]5CCC[C@H]5O)nc43)[C@H](O)[C@@H]2O)n1.O=C(O)C(F)(F)F.O=C(O)C(F)(F)F [Example 60] | 4.24 | 69.10 | >385
15 | CC(C)n1nnc([C@H]2O[C@@H](n3cnc4c(NC5CCCC5)nc(NCCc5cn(C)cn5)nc43)[C@H](O)[C@@H]2O)n1.O=CO [Example 41, (2R,3R,4S,5R)-2-{6-Cyclopentylamino-2-[2-(1-methyl-1H-imidazol-4-yl)-ethylamino]-purin-9-yl}-5-(2-isopropyl-2H-tetrazol-5-yl)-tetrahydro-furan-3,4-diol Formate] | 0.73 | 28.9 | >232
16 | CCC(CC)Nc1nc(NCCc2cn(C)cn2)nc2c1ncn2[C@@H]1O[C@H](c2nnn(C(C)C)n2)[C@@H](O)[C@H]1O.O=CO [Example 59, (2R,3R,4S,5R)-2-{6-(1-Ethyl-propylamino)-2-[2-(1-methyl-1H-imidazol-4-yl)-ethylamino]-purin-9-yl}-5-(2-isopropyl-2H-tetrazol-5-yl)-tetrahydro-furan-3,4-diol Formate] | 2.34 | 92.30 | >749
17 | CCn1nnc([C@H]2O[C@@H](n3cnc4c(NCC(c5ccccc5)c5ccccc5)nc(NC5CCS(=O)(=O)C5)nc43)[C@H](O)[C@@H]2O)n1.O=C(O)C(F)(F)F.O=C(O)C(F)(F)F (stereo partly drawn) [Example 45] | 2.26 | >1578.00 | >420
18 | CCC(CC)Nc1nc(NCCc2cn(C)cn2)nc2c1ncn2[C@@H]1O[C@H](c2nnn(C)n2)[C@@H](O)[C@H]1O.O=CO [Example 33, (2R,3R,4S,5R)-2-{6-(1-Ethyl-propylamino)-2-[2-(1-methyl-1H-imidazol-4-yl)-ethylamino]-purin-9-yl}-5-(2-methyl-2H-tetrazol-5-yl)-tetrahydro-furan-3,4-diol Formate] | 0.16 | >4045 | >172
19 | CC(C)n1nnc([C@H]2O[C@@H](n3cnc4c(NCc5ccccc5)nc(NCCc5cn(C)cn5)nc43)[C@H](O)[C@@H]2O)n1.O=CO [Example 58, (2R,3R,4S,5R)-2-{6-Benzylamino-2-[2-(1-methyl-1H-imidazol-4-yl)-ethylamino]-purin-9-yl}-5-(2-isopropyl-2H-tetrazol-5-yl)-tetrahydro-furan-3,4-diol Formate] | 6.07 | 1119.00 | >515
